Reference: patent US20220041641A1, “QUATERNARY AMMONIUM SALTS AS INHIBITORS OF TRIMETHYLAMINE PRODUCTION” (Senda Biosciences, Inc., priority 2018, published 2022)
Where a name gives a salt, the structure may show the parent alone. Read-outs that look alike come from different tables or passages of the source.

Biological target: CutC from Proteus mirabilis (Proteus mirabilis, UniProt B4EYG1)
Experiment: Cell-based assay for TMA production from a native producer (P. mirabilis)
Text: In each bacterium, CutC was modified into its activated form by a cognate activating enzyme, CutD (protein EDU36696.1 for C. sporogenes; protein WP_004249185.1 for P. mirabilis). […] Trimethylamine may subsequently be converted by human enzymes such as flavin monooxygenase 3 to trimethylamine N-oxide, which might be associated with negative health consequences in humans.
A compound's ability to inhibit CutC from Proteus mirabilis and C. sporogenes from converting choline into trimethylamine was tested in cells as described. A BHI blood plate was inoculated with a frozen stock of Proteus mirabilis or Clostridium sporogenes under anaerobic conditions. A single colony was isolated from the plate and inoculated into 5 mL BHI supplemented with 1 mM choline under anaerobic conditions. The liquid cultures were grown overnight at 37° C.
To prepare each sample, 300 μL of the saturated culture was then inoculated into a 30 mL dilution blank under anaerobic conditions. 1 mM (trimethyl-d9)-choline and a sufficient amount of a compound to obtain a final concentration of 10 μM were added to the inoculated dilution blank. […] The mixture was incubated at 37° C. for 5 h. […] After centrifugation, the samples were analyzed by LCMS to determine the amount of d9-TMA produced.

[1] = d9-TMA from 1 mM d9-choline, 5 h, 37° C.; value 10 given when no fit or % TMA remaining at 10 μM higher than 15%; read-out: Average IC50 Whole cell P. mirabilis
[2] = read-out: Average IC50 Whole cell P. mirabilis; d9-TMA from 1 mM d9-choline, 5 h, 37° C.; value 10 given when no fit or % TMA remaining at 10 μM higher than 15%

CutC from Proteus mirabilis, sequence (B4EYG1 entry or part of it): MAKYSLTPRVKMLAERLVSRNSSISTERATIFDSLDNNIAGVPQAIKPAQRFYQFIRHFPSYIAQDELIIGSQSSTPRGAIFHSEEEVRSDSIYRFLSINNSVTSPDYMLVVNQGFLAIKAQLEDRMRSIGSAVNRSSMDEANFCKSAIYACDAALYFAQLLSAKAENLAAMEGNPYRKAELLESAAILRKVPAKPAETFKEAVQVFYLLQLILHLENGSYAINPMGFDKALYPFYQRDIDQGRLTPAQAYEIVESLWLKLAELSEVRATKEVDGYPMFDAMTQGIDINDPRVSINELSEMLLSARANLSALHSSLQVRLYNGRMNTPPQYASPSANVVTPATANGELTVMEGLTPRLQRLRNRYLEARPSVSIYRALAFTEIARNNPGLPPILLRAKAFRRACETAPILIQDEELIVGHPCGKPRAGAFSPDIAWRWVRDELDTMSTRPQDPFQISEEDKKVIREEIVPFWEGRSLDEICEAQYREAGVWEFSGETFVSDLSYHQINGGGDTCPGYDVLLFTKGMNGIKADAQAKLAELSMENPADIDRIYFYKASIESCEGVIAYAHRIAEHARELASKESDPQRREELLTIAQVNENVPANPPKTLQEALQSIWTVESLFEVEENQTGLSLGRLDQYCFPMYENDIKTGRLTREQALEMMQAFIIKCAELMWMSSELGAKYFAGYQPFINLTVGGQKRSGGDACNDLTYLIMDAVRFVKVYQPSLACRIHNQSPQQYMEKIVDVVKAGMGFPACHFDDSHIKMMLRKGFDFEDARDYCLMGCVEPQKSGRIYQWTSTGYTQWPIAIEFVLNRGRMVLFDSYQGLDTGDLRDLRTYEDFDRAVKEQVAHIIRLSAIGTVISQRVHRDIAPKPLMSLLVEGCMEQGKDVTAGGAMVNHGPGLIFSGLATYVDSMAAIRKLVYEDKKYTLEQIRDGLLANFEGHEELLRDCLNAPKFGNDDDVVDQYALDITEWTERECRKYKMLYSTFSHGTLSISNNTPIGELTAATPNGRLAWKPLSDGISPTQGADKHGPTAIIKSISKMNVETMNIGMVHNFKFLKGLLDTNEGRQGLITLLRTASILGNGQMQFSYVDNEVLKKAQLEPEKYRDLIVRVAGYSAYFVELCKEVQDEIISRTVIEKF
CutC from Proteus mirabilis, sequence (B4EYG0 entry or part of it, further chain): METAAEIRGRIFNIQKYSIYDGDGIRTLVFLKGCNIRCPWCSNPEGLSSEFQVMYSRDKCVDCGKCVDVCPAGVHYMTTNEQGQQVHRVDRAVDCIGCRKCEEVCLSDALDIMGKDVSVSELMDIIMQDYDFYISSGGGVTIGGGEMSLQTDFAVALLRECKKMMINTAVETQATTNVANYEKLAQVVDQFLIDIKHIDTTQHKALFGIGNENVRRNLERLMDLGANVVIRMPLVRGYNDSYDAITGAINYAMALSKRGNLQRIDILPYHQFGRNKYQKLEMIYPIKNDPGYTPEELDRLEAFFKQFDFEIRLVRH

SMILES | IC50 [1] [µM] | IC50 [2] [µM]
C#CC[N+](C)(C)C[C@H](C)C(=O)O [Compound 166, (S)—N-(2-carboxypropyl)-N,N-dimethylprop-2-yn-1-aminium Chloride] | 1.26 | 
C#CC[N+](C)(C)CC#N [Compound 168, (cyanomethyl)dimethyl(prop-2-yn-1-yl)azanium Bromide] | 0.87 | 
C#CC[N+](C)(C)CC=C [Compound 211, N,N-dimethyl-N-(prop-2-yn-1-yl)prop-2-en-1-aminium 2,2,2-trifluoroacetate] | 0.211 | 
C#CC[N+](C)(C)CCNC(=O)OC(C)(C)C [Compound 192, tert-butyl N-{2-[dimethyl(prop-2-yn-1-yl)azaniumyl]ethyl}carbamate Bromide] | > 10 | 
C#CC1CCC[N+]1(C)C (stereo not drawn) [Compound 226] | 0.244 | 
C[N+](C)(CCO)CC1CCC1 [Compound 194, (cyclobutylmethyl)(2-hydroxyethyl)dimethylazanium Bromide] | > 10 | 
C#CC[N+](C)(C)CCS(=O)(=O)O [Compound 221, dimethyl(prop-2-yn-1-yl)(2-sulfoethyl)azanium Trifluoroacetate] | > 10 | 
C[N+](C)(CCO)C1COC1 [Compound 219, N-(2-hydroxyethyl)-N,N-dimethyloxetan-3-aminium trifluoroacetate] | > 10 | 
C#CC[N+]1(CF)CCCC1 [Compound 187, 1-(fluoromethyl)-1-(prop-2-yn-1-yl)pyrrolidin-1-ium] | 0.763 | 
C#CC[N+](C)(C)CC(=C)F [Compound 209, 2-fluoro-N,N-dimethyl-N-(prop-2-yn-1-yl)prop-2-en-1-aminium 2,2,2-trifluoroacetate] | 6.8 | 
C=C(C[N+](C)(C)CC#N)C(=O)OC [Compound 189, N-(cyanomethyl)-2-(methoxycarbonyl)-N,N-dimethylprop-2-en-1-aminium Bromide] | > 10 | 
C#CC[N+](C)(C)CC [Compound 206, ethyldimethyl(prop-2-yn-1-yl)azanium Iodide] | 0.069 | 
C#CC[N+]1(CF)CCCCC1 [Compound 164, 1-(fluoromethyl)-1-(prop-2-yn-1-yl)piperidin-1-ium Iodide] | ≥ 10 | 
C[N+](C)(C)CCCl [Compound 180] |  | > 10
C[N+](C)(C)CCC[PH](=O)O [Compound 147, 3-(hydroxyhydrophosphoryl)-N,N,N-trimethylpropan-1-aminium Chloridechloridechloridechloridechloride] |  | ≥ 10
C#CC[N+](C)(C)CCN [Compound 183, (2-aminoethyl)dimethyl(prop-2-yn-1-yl)azanium] | > 10 | 
C#CC[N+](C)(C)CCOCCO [Compound 191, [2-(2-hydroxyethoxy)ethyl]dimethyl(prop-2-yn-1-yl)azanium] | 2.17 | 
C#CC[N+]1(CC#C)CC[C@@H](O)C1 [Compound 200, (3R)-3-hydroxy-1,1-bis(prop-2-yn-1-yl)pyrrolidin-1-ium] | 2.74 | 
C#CC[N+](C)(C)CCP(=O)(O)O [Compound 210, {2-[dimethyl(prop-2-yn-1-yl)azaniumyl]ethyl}phosphonic Acid] |  | > 10
C#CC[N+](C)(CC#C)CCS(=O)(=O)O [Compound 223, methylbis(prop-2-yn-1-yl)(2-sulfoethyl)azanium] | 2.28 | 

SMILES | IC50 [1] [µM] | IC50 [2] [µM]
C#CC[N+](C)(C)C[C@H](C)C(=O)OC [Compound 175, [(2S)-3-methoxy-2-methyl-3-oxopropyl]dimethyl(prop-2-yn-1-yl)azanium] | 0.17 | 
C#CC[N+](C)(C)Cc1nnn[nH]1 [Compound 177, dimethyl(prop-2-yn-1-yl)[(1H-1,2,3,4-tetrazol-5-yl)methyl]azanium] | 7.57 | 
C=C(C[N+](C)(C)CC(=C)C(=O)O)C(=O)O [Compound 156, 2-carboxy-N-(2-carboxyallyl)-N,N-dimethylprop-2-en-1-aminium Bromide] | ≥ 10 | 
CCC[N+](C)(CF)CCO (stereo not drawn) [Compound 225] | 0.629 | 
C#CC[N+](C)(C)CCCB(O)O [Compound 222, {3-[dimethyl(prop-2-yn-1-yl)azaniumyl]propyl}boronic Acid] | > 10 | 
C#CC[C@@H](C(=O)O)[N+](C)(C)C [Compound 152, (S)-1-carboxy-N,N,N-trimethylbut-3-yn-1-aminium Iodide] | ≥ 10 | 
C#CC[N+](C)(C)CC(=C)C [Compound 208, N,N,2-trimethyl-N-(prop-2-yn-1-yl)prop-2-en-1-aminium 2,2,2-trifluoroacetate] | > 10 | 
COC[N+](C)(C)CCO [Compound 212, (2-hydroxyethyl)(methoxymethyl)dimethylazanium trifluoroacetate] | 1.99 | 
C[N+]12CCC(CC1)[C@H](O)C2 [Compound 148, (1s,4s)-3-hydroxy-1-methylquinuclidin-1-ium] | ≥ 10 | 
C[N+](C)(C)CC#N [Compound 169, (cyanomethyl)trimethylazanium Iodide] | ≥ 10 | 
C[N+]1(C)CCOCC1CO (stereo not drawn) [Compound 220, 3-(hydroxymethyl)-4,4-dimethylmorpholin-4-ium] | > 10 | 
C#CC[N+](C)(C)CC[PH](=O)O [Compound 227, {2-[dimethyl(prop-2-yn-1-yl)azaniumyl]ethyl}phosphinic Acid] |  | > 10
C#CC[N+](C)(C)CCC [Compound 204, dimethyl(prop-2-yn-1-yl)propylazanium Iodide] | 0.66 | 
C[N+](C)(CCO)CCO [Compound 157, 2-hydroxy-N-(2-hydroxyethyl)-N,N-dimethylethan-1-aminium Iodide] | ≥ 10 | 
C#CC[N+](C)(C)CF [Compound 179, (fluoromethyl)dimethyl(prop-2-yn-1-yl)azanium Iodide] | 0.11 | 
C[N+](C)(CCO)C1CCC1 [Compound 199, N-(2-hydroxyethyl)-N,N-dimethylcyclobutanaminium] | > 10 | 
C=C(C[N+](C)(C)C)C(=O)O [Compound 155, 2-carboxy-N,N,N-trimethylprop-2-en-1-aminium Bromide] | 2.58 | 
C#CC[N+](C)(C)CSC [Compound 196, dimethyl[(methylsulfanyl)methyl](prop-2-yn-1-yl)azanium] | 7.78 | 
C#CC[N+](C)(C)CC(=O)NS(C)(=O)=O [Compound 216, [(methanesulfonylcarbamoyl)methyl]dimethyl(prop-2-yn-1-yl)azanium] | > 10 | 
